Source: US11046945B2, “Labeled glutaminase proteins, isolated glutaminase protein mutants, methods of use, and kit” (CORNELL UNIVERSITY, priority 2013, dated 2021)

Molecular target: T1, GAC (Mus musculus, UniProt D3Z7P3)
T1 construct: plasmid (residues 72-603 for GAC, 72-674 for KGA); His-tag with thrombin cleavage site (N, cleaved yes); made in house; host or cells: pET23a vector
T1 sequence (D3Z7P3 72-603 isoform D3Z7P3-2): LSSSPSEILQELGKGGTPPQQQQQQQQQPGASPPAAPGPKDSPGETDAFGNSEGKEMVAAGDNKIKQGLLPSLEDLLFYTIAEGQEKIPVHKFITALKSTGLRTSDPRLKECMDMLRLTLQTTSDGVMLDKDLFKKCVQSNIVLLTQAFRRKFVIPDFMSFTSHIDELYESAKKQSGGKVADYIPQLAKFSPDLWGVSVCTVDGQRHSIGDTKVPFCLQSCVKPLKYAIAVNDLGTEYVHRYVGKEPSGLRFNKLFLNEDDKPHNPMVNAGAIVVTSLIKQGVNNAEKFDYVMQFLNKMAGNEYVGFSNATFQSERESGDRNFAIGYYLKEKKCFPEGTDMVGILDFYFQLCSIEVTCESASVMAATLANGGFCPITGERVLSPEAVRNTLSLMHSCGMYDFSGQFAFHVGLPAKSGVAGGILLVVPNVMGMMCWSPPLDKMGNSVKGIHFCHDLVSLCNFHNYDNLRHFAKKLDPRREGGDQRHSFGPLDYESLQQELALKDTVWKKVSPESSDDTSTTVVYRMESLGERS
Assay: Real-time glutaminase activity assay coupled to GDH (NADH fluorescence)
Assay type: biochemical
Conditions: for inhibition of GAC activity: 10 nM 488-GAC or unlabeled WT-GAC, 20 mM glutamine, 50 mM phosphate
Experimental: [formula] where F is the normalized fluorescence at given drug concentration (i.e., F/F0), and Fsat is the normalized fluorescence at saturating concentrations of drug, as shown in FIG. 7A. Real-time activity assays were prepared in 1 mL samples, where 10 units of glutamate dehydrogenase (Sigma) and 2 mM NAD^+ (Sigma) was prepared in 50 mM Tris-Acetate pH=8.5, 0.1 mM EDTA and equilibrated at 20° C. 10 nM WT GAC was added and allowed to equilibrate 2 minutes before beginning to monitor fluorescence of 488-GAC (490 nm excitation, 520 nm emission) and NADH fluorescence (340 nm excitation, 490 nm emission). Appropriate dilutions of 968 or BPTES prepared in DMSO were injected after 30 seconds and allowed to equilibrate for 2 minutes before 180 μL of a solution of 333 mM K2HPO4, 133 mM glutamine, 50 mM Tris-Acetate pH 8.5, 0.1 mM EDTA was added to initiate GAC activation. The activity of GAC was indirectly measured by the NADH produced by the added glutamate dehydrogenase, which converts the product of glutaminase activity, glutamate, to α-ketoglutarate and ammonia through reducing NAD^+ to NADH. Because solutions containing glutamine undergo non-enzymatic degradation to glutamate, samples were further analyzed by subtracting the evolved NADH produced by glutaminase in the presence of 968, BPTES, or the equivalent volume of DMSO as a control, by the evolved NADH produced in the absence of glutaminase under identical experimental conditions. Evolved NADH was quantified using a standard curve of freshly prepared NADH (Sigma) in 50 mM Tris-Acetate pH=8.5, 0.1 mM EDTA.
Procedures for the described real-time binding and inhibition assays were adapted for 96-well microtiter format with minor alterations. Briefly, 2 μL of inhibitor or DMSO was distributed across the 96-well plate followed by addition of 200 μL 10 nM 488-GAC, unlabeled WT-GAC, or no added GAC as a negative control in 50 mM Tris-Acetate pH 8.5, 0.1 mM EDTA and immediate monitoring of 488 fluorescence (490 nm/520 nm excitation/emission, 5 nm/20 nm excitation/emission slits). […]

Row | inhibition of GAC activity | inhibition of GAC activity at 5 nM versus 50 nM GAC (GAC decreased from 50 nM to 5 nM, 968 pre-incubated) | Structure (SMILES)
1 | potent inhibition |  | O=C(Cc1ccccc1)Nc1nnc(CCSCCc2nnc(NC(=O)Cc3ccccc3)s2)s1 [BPTES]
2 | dose-dependent inhibition | higher efficacy and potency | CN(C)c1ccc(C2Nc3ccc4ccccc4c3C3=C2C(=O)CC(C)(C)C3)cc1Br (stereo not drawn) [compound 968]
